Data from patent US20250049966A1, “SMALL MOLECULE TRACER FOR IMAGING ALPHA-SYNUCLEIN AGGREGATES” (Fudan University, priority 2021, published 2025).
pKd: −log10 of the molar value. “Also recorded” adds a separate entry of the source. Where two headings read alike, the source gives them in different places.

Key:
[1] = target: T1, human α-synuclein aggregates (Homo sapiens, UniProt P37840); experiment: Fluorescence saturation binding of compounds to α-synuclein aggregates
T1 construct: made in house; host or cells: E. coli BL21 (DE3)
Protocol: 1 μL ampicillin anti-plasmid with α-synuclein in the correct sequence was mixed with 100 μL BL21 (DE3) receptive cells, cooled in an ice bath, added in 600 μL LB medium, and cultured in a 220 rpm shaking bed at 37° C. for 90 min. 150 μL cultured bacterial solution was added to the sterilized dish coated with ampicillin medium evenly. Positive clonal colonies were selected and added to the configured ampicillin medium and cultured in an incubator at 37° C. The cultured positive clones were poured into 1 L of 2×YT medium and cultured in a 220 rpm shaker at 37° C. to make OD 600 0.6 and then cooled to 18° C. Each medium was induced to culture for 16 hours by adding 1 ml of IPTG (500 mM).
The bacteria were centrifuged at high speed for 30 min after ultrasonic. The supernatant was collected to remove DNA and hetero-proteins by Ni-NTA chromatography. α-synuclein monomer was purified by molecular exclusion chromatography and the purity was verified by SDS-PAGE discontinuous electrophoresis.
α-synuclein monomers were prepared into a buffer solution containing 1×PBS, wherein the final protein concentration was 100 μM (about 5 mg/mL), and incubated in a 1000 rpm shaker at 37° C. for 7 days to obtain α-synuclein aggregates. The initial and final concentrations of the monomer protein were determined by the BCA method.
10 mM mother solution of DMSO was prepared from 1 mg of the compound, then diluted to 20 μM with PBS, and made gradient dilution 7 times (3× each dilution); 30 μL of test compound was added to the 384-well plate, following the experimental group was added to 30 μL α-synuclein aggregates (3 μM), and the control group was added to the same amount of PBS. After the 384-well plate was incubated shaking at 50 rpm at room temperature for 1 hour, the plate was taken out to detect the maximum absorption and emission wavelengths of the compound with an ELISA Microplate Reader, and the fluorescence values were detected at these wavelengths, too. The fluorescence changes in different concentrations of compounds were calculated using the experimental group data minus the control group data, and the protein-binding affinity of compounds was obtained using the Saturation binding module of GraphPad Prism.
The binding affinity of the Formula I compound to α-synuclein aggregates is determined by the above method, and the dissociation equilibrium constant Kd is shown in Table 1.

[2] = target: T2, Lewy bodies and Lewy neurites (α-synuclein lesions) (Homo sapiens, UniProt P37840); experiment: Fluorescence staining of brain slices from patients of dementia with Lewy body (DLB); assay type: binding; details: for Staining of Lewy bodies and Lewy neurites in DLB patient brain slices: 30 μM compound, frozen amygdala sections 20 μm, fluorescence microscopy, FIG. 1; for Binding to α-synuclein pathological tissue compared with Aβ and Tau pathological tissue (selectivity): DLB versus AD brain slices, FIG. 1 and FIG. 2
T2 construct: from tissue; host or cells: human amygdala, DLB patient, fresh frozen sections
Protocol: Brain slices from patients with dementia with Lewy bodies were taken from the amygdala of a deceased person in stage 2 of dementia with Lewy bodies. Frozen sections of the amygdala with rich α-synuclein were performed with a thickness of 20 μm.
(§1) The tested compound was diluted to 30 μM with PBS solution containing 50% EtOH, following incubated with the fresh frozen brain sections at room temperature for 30 minutes, then washed with 50% ethanol solution for 5 minutes and ultra-pure water twice for 3 minutes each time in sequence. After the sections were buried with an embedding agent (VECTASHIELD H-1000, Vector Laboratories), images of the lesion accumulation area on the sections were obtained by fluorescence microscopy. Analysis software (Image J) was used to quantify the fluorescence radiance of both the lesion area and the area of the non-forming lesion (background) to evaluate binding selectivity.

Aβ lesions = target: T3, Aβ lesions (Homo sapiens, UniProt P05067); experiment: Fluorescence staining of brain slices from patients with Alzheimer's disease (AD), Aβ; assay type: binding; details: 30 μM compound, superior temporal gyrus sections 6 μm, fluorescence microscopy, FIG. 2
T3 construct: from tissue
T3 sequence (P05067 672-713 limits assumed): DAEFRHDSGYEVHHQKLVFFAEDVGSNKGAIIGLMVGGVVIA
Protocol: as §1
(§2) The dewaxed brain tissue was fixed in a 10% neutral buffer of formalin solution, embedded with paraffin, and then sliced with a thickness of 6 μm. The staining method is the same as the above method for DLB patients.

[3] = tested on: Tau neurofibrillary filaments; experiment: Fluorescence staining of brain slices from patients with Alzheimer's disease (AD), Tau; assay type: binding, human; details: 30 μM compound, superior temporal gyrus sections 6 μm, fluorescence microscopy, FIG. 2
Protocol: as §1, §2

[4] = Blood-brain barrier permeability test, rat tail vein injection; assay type: in vivo; details: brain / blood supernatant after centrifugation, intravenous, SD rats, 5 mg/kg tail vein, 20 min after administration, LC-MS/MS, read-out: brain/blood ratio
Protocol: The compound of the invention is injected into a rat tail vein to determine the blood-brain barrier permeability in vivo according to the following method.
Dissolve the tested compound in DMSO, and add castor oil and PBS for dilution (DMSO:castor oil:PBS=1:1:8). SD rats were weighed and given 5 mg/kg in the tail vein. 500 μL of blood was taken 20 min after administration after anesthetized with isoflurane. Cardiac perfusion was performed with 200 mL PBS and stopped until the organ faded, following brain tissue was got out and washed with PBS.
After centrifuging the extracted blood at 9000 rpm for 5 min, 200 μL supernatant was taken and added 800 μL methanol. After centrifuging at 14000 rpm for 10 min, the supernatant was taken and filtered through a 0.22 μm filter membrane and stored at −80° C. for use.
2 mL PBS and 2 mL methanol were added to about 0.5 g of brain tissue to make a tissue homogenization, and then 1 mL homogenate was taken out and centrifuged at 14,000 rpm for 10 min after 2 mL methanol was added, 1 mL supernatant was taken through 0.22 μm filter membrane and stored at −80° C. for use. The concentration of compounds in the above supernatant of blood and brain homogenate were checked by LC-MS/MS, respectively.

[5] = fluorescence method, α-synuclein aggregates (3 μM), room temperature 1 hour, read-out: Binding affinity (Kd) on human α-synuclein aggregates

SMILES | pKd [1, 5] | Staining of Lewy bodies and Lewy neurites in DLB patient brain slices [2] | Binding to α-synuclein pathological tissue compared with Aβ and Tau pathological tissue (selectivity) [2] | Staining/binding of Aβ lesions in AD patient brain slices (Aβ lesions) | Staining/binding of Tau neurofibrillary filaments in AD patient brain slices [3] | Kp at 20 min [4] | pKd [1]
Fc1ccc(-c2ccc3nc(-c4ccc(N5CCCC5)nc4)oc3c2)cn1 [I-6] | 6.30 to 6.70 | can stain Lewy bodies and Lewy neurites; also recorded: can well label the α-synuclein in Lewy bodies and Lewy neurites | significantly stronger | could also detect Aβ lesions; also recorded: very weak binding | fail to Tau neurofibrillary filaments; also recorded: no binding | ≥ 1 | –
CN(C)c1ccc(-c2nc3cc(N4CCN(CCF)CC4=O)ccc3o2)cn1 [I-10] | 6.30 to 6.70 | – | – | – | – | – | –
Fc1ccc(-c2ccc3oc(-c4ccc(N5CCCC5)nc4)nc3c2)cn1 [I-5] | 6.30 to 6.70 | can stain Lewy bodies and Lewy neurites; also recorded: can well label the α-synuclein in Lewy bodies and Lewy neurites | significantly stronger | could also detect Aβ lesions; also recorded: very weak binding | fail to Tau neurofibrillary filaments; also recorded: no binding | ≥ 1 | –
CN(C)c1ccc(-c2nc3cc(-c4cccnc4)ccc3o2)cc1 [I-2] | 6.00 to 6.30 | – | – | – | – | – | –
CN(C)c1ccc(-c2nc3cc(-c4cccnc4)ccc3o2)cn1 [I-1] | 6.00 to 6.30 | – | – | – | – | – | –
CN1CCN(c2ccc3oc(-c4ccc(N(C)C)nc4)nc3c2)C(=O)C1 [I-4] | – | can stain Lewy bodies and Lewy neurites; also recorded: can well label the α-synuclein in Lewy bodies and Lewy neurites | significantly stronger | could also detect Aβ lesions; also recorded: very weak binding | fail to Tau neurofibrillary filaments; also recorded: no binding | ≥ 1 | 6.70 to 7.00
